Measurements from patent publication US6455516B1, “Method and compounds for use in the treatment of steroid induced states of the central nervous system” (priority 1998, dated 2002).
“Also recorded” adds a separate entry of the source.

What was measured:
[1] = tested on: slices from hippocampal CA1 region; assay: Hippocampus slice in vitro model: induced population spike (POPSP) over the synapse in area CA1; format: cell-based, rat; settings: for Blocking of the effect of 3alpha-hydroxy-5alpha-pregnan-20-one on the signal/POPSP / Blocking of the effect of 3alpha-hydroxy-5beta-pregnan-20-one on the signal/POPSP: given simultaneously, equimolar dose in the nM range; for Effect on the signal transmitted over the synapse / amplitude of the POPSP: steroid alone
Text: In another preliminary study, the hippocampus slice model in the female rat of the luteal phase was used. This corresponds to the phase in humans when most of CNS effects are noticed in women with epilepsy and premenstrual syndrome.
In the hippocampus slice in vitro model the effect of steroids on an electrical signal over the synapse in the area CA1 was investigated. The stimulation is on one side of the synapse and a measurement of the response is made on the other side. A small droplet containing the steroid can be placed on top of the synapse and thus influence the synaptic transmission. Secondly a steroid can also be dissolved in the nutrient fluid perfusing the hippocampous slice. The steroid in the perfusion will influence the whole slice including the synapse under investigation.

Sprague-Dawley rats [2] = settings: a result found by several groups and described in earlier reports; cited from earlier work
Sprague-Dawley rats [3] = assay: EEG-threshold method for deep anaesthesia ("silent second"), continuous intravenous infusion; format: in vivo, rat; settings: for Intercept of regression line (anaesthetic steroid dosage needed for SS at zero 3beta-hydroxy-5alpha-pregnan-20-one): FIG. 1 / FIG. 2; for Optimal dose rate (gives the lowest threshold dose): rats
Procedure: The present invention is based on experiments in vivo, performed to confirm the blocking effect of 3beta-hydroxy-5alpha-pregnan-20-one on 3alpha-hydroxy-5alpha-pregnan-20-one in a preliminary study. 3alpha-hydroxy-5alpha-pregnan-20-one dissolved in 20% cyclodextrin was given to male Sprague-Dawley rats in an i.v. infusion dose rate of close to 3.0 mg/kg/min. This is the optimal dose rate for 3alpha-hydroxy-5alpha-pregnan-20-one. 3alpha-hydroxy-5alpha-pregnan-20-one and 3beta-hydroxy-5alpha-pregnan-20-one were dissolved, 50/50%, in water solution containing cyclodextrin. The control solution only contained 3alpha-hydroxy-5alpha-pregnan-20-one. The amount of 3alpha-hydroxy-5alpha-pregnan-20-one needed to obtain silent second, the anaesthesia criteria, was 21% higher with the combined solution compared to 3alpha-hydroxy-5alpha-pregnan-20-one alone, showing an interaction between 3alpha-hydroxy-5alpha-pregnan-20-one and 3beta-hydroxy-5alpha-pregnan-20-one in vivo. There was no overlap between the effect of the combined solution and control solution of 3alpha-hydroxy-5alpha-pregnan-20-one.
In further studies, performed after the priority date, the present invention was tested in in vivo experiments in which the blocking effect of 3beta-hydroxy-5alpha-pregnan-20-one was assessed by investigating the dosage of 3alpha-hydroxy-5alpha-pregnan-20-one and 3alpha-hydroxy-5beta-pregnan-20-one needed to induce a deep anaesthesia in the presence of increasing amounts of 3beta-hydroxy-5alpha-pregnan-20-one. An EEG-threshold method for deep anaesthesia was used. The method is developed to determine the sensitivity in the central nervous system (CNS) to the depressant drugs, mainly intravenous anaesthetic agents. Drugs are administered into the tail vein by continuous intravenous infusion while an Electro-Encephalo-Gram (EEG) is recorded. The infusion was immediately stopped and infusion time recorded, when the first burst of EEG suppression for one second or more is noted, the threshold criterion for a deep anaethesia, the “silent second” (SS). The appearance of SS is considered as a deeper anaesthesia state than the loss of righting reflex. The threshold dose (mg/kg) is calculated by multiplying the time to obtain SS with the dose rate (mg/kg/min). The threshold doses of the tested drug indicates its relative anaesthetic potency. The threshold doses are also related to CNS excitability. An increase or decrease in CNS excitability can be measured by a change in threshold doses of anesthetics. The dose rates which give the lowest threshold dose is considered as the optimal dose rate. The optimal dose rate and anaesthetic threshold dosage for 3alpha-hydroxy-5alpha-pregnan-20-one and […] at several times and the optimal dose rate is close to 3.0 mg/kg/min for both 3alpha-hydroxy-5alpha-pregnan-20-one and 3alpha-hydroxy-5beta-pregnan-20-one. The anaesthetic threshold dosage is for 3alpha-hydroxy-5alpha-pregnan-20-one between 6.5 to 8.0 mg/kg and for 3alpha-hydroxy-5beta-pregnan-20-one between 9 to 11 mg/kg depending on the age of the rats and the solvent used.
3alpha-hydroxy-5alpha-pregnan-20-one and […] dissolved in 20% cyclodextrin were given to Sprague-Dawley rats in an intravenous infusion at the optimal dose rate. 3beta-hydroxy-5alpha-pregnan-20-one was also dissolved in a 20% cyclodextrin solution and given simultaneously in a dosage 100%, 123% and 143% of the 3alpha-hydroxy-5alpha-pregnan-20-one dosage (n=11) and 70%, 100%, 123% and 143% of the 3alpha-hydroxy-5beta-pregnan-20-one dosage (n=16). […] The correlation between the dosage 3beta-hydroxy-5alpha-pregnan-20-one given and the dosage of 3alpha-hydroxy-5alpha-pregnan-20-one and 3alpha-hydroxy-5beta-pregnan-20-one needed to obtain the criterion of SS is highly significant (FIG. 1 and FIG. 2).

[4] = Steroids tested by the inventors as agonist, blocker or antagonist to the sedative steroids (method not given)

| Molecule | Blocking of the effect of 3alpha-hydroxy-5alpha-pregnan-20-one on the signal/POPSP ([1]; local application) | Blocking of the effect of 3alpha-hydroxy-5beta-pregnan-20-one on the signal/POPSP ([1]; local application) | Effect on the signal transmitted over the synapse / amplitude of the POPSP ([1]; local application) | Intercept of regression line (anaesthetic steroid dosage needed for SS at zero 3beta-hydroxy-5alpha-pregnan-20-one) (Sprague-Dawley rats [3]) | Optimal dose rate (gives the lowest threshold dose) (Sprague-Dawley rats [3]; i.v. infusion) | Effect as agonist, blocker or antagonist to the sedative steroids [4] | further results |
| --- | --- | --- | --- | --- | --- | --- | --- |
| CC(=O)[C@H]1CC[C@H]2[C@@H]3CC[C@H]4C[C@@H](O)CC[C@]4(C)[C@H]3CC[C@]12C [3beta-hydroxy-5alpha-pregnan-20-one] | can be blocked; also recorded: totally inhibited | can be blocked; also recorded: can inhibit the effect |  |  |  |  | Effect by itself on signal transmission over the synapse ([1]; alone, up to micromolar range, not different from vehicle): no effect on signal transmission; also recorded: no effect by itself; Blocking of the effect of 3alpha-hydroxy-5alpha-pregnan-20-one when perfused to the whole hippocampus slice ([1]; perfusion of whole slice): same blocking effect; Interaction with Muscimol (an agonist to GABA) on the GABA-A receptor ([1]; together with Muscimol, FIG. 5): does not interact with Muscimol; Effect by itself on CNS activities (Sprague-Dawley rats [2]): no effect on CNS activities; Correlation coefficient r: 3alpha-hydroxy-5alpha-pregnan-20-one dosage needed for SS vs 3beta-hydroxy-5alpha-pregnan-20-one dosage (Sprague-Dawley rats [3]; FIG. 1, p<0.001, df=9): 0.90; Slope of regression line: 3alpha-hydroxy-5alpha-pregnan-20-one dosage needed for SS vs 3beta-hydroxy-5alpha-pregnan-20-one dosage (Sprague-Dawley rats [3]; FIG. 1, slope p<0.001 different from 0): 0.43; Correlation coefficient r: 3alpha-hydroxy-5beta-pregnan-20-one dosage needed for SS vs 3beta-hydroxy-5alpha-pregnan-20-one dosage (Sprague-Dawley rats [3]; FIG. 2, P<0.001, df=14): 0.78; Slope of regression line: 3alpha-hydroxy-5beta-pregnan-20-one dosage needed for SS vs 3beta-hydroxy-5alpha-pregnan-20-one dosage (Sprague-Dawley rats [3]; FIG. 2, slope p<0.001 different from 0): 0.46; Effect on the anaesthetic effect of 3alpha-hydroxy-5beta-pregnan-20-one in vivo (Sprague-Dawley rats [3]; given simultaneously i.v. at 70%, 100%, 123% and 143% of the 3alpha-hydroxy-5beta-pregnan-20-one dosage, dose dependent): can block the effect; also recorded: decreased the anaesthetic potency; Effect on the anaesthetic/CNS depressing effect of 3alpha-hydroxy-5alpha-pregnan-20-one in vivo (Sprague-Dawley rats [3]; given simultaneously i.v. at 100%, 123% and 143% of the 3alpha-hydroxy-5alpha-pregnan-20-one dosage, dose dependent): can block the effect; also recorded: decreased the anaesthetic potency; Amount of 3alpha-hydroxy-5alpha-pregnan-20-one needed to obtain silent second, higher with combined solution compared to 3alpha-hydroxy-5alpha-pregnan-20-one alone (Sprague-Dawley rats [3]; preliminary study, 50/50% with 3alpha-hydroxy-5alpha-pregnan-20-one in cyclodextrin solution, i.v. infusion, male Sprague-Dawley rats): 21% |
| CC(=O)[C@H]1CC[C@H]2[C@@H]3CC[C@@H]4C[C@H](O)CC[C@]4(C)[C@H]3CC[C@]12C [3alpha-hydroxy-5beta-pregnan-20-one, reference compound] |  |  | inhibition of the signal transmitted over the synapse; also recorded: inhibits the amplitude of the POPSP | 9.1 mg/kg | ~3.0 mg/kg/min |  |  |
| 3beta-hydroxy-pregnenolone | no blocking effect | no blocking effect |  |  |  | no effect either as an agonist or blocker or antagonist |  |
| CC(=O)[C@H]1CC[C@H]2[C@@H]3CC[C@H]4C[C@H](O)CC[C@]4(C)[C@H]3CC[C@]12C [3alpha-hydroxy-5alpha-pregnan-20-one, reference compound] |  |  | inhibition of the signal transmitted over the synapse | 6.9 mg/kg | ~3.0 mg/kg/min |  | Reduction of the amplitude of the induced population spike ([1]; local application, FIG. 3): 45% |
| CC(=O)C1CCC2C3CC=C4CC(OS(=O)(=O)O)CCC4(C)C3CCC12C (stereo not shown) [Pregnenolone sulphate] |  | could neither block |  |  |  |  | Own effect on the signal in high micromolar concentrations ([1]; high micromolar concentrations): excitatory |
| CC(=O)[C@H]1CC[C@H]2[C@@H]3CC[C@@H]4C[C@@H](O)CC[C@]4(C)[C@H]3CC[C@]12C [3beta-hydroxy-5beta-pregnan-20-one] | no blocking effect | no blocking effect |  |  |  | no effect either as a blocker or as an antagonist |  |
